Test results as given in patent publication US20140073631A1 (priority 2012, published 2014).
pIC50: −log10 of the molar value. Values after ≈ are worked out from the molar mass of the structure shown. Like-named read-outs stand apart in the source and are kept apart here.

How the values were obtained:
[1] = tested on: Burkholderia pseudomallei; assay: microbe, parasite or virus in culture; type: cell-based
[2] = tested on: HIV-1 ROJO (low passage clinical strain); assay: PBMC assay, virus production by reverse transcriptase activity; type: cell-based
[3] = tested on: fresh human peripheral blood mononuclear cells
[4] = tested on: Flu A H1N1 New Caledonia/20/99; assay: Anti-influenza testing, visual and NR assays; type: cell-based, influenza A H1N1; details: for activity by visual and NR assays: Flu A H1N1
[5] = tested on: Flu A H3N2 California/7/04; assay: Anti-influenza testing, visual and NR assays; type: cell-based, influenza A H3N2; details: for activity by visual and NR assays: Flu A H3N2; for EC50: H3N2, MDCK
Plasmodium falciparum = assay: Anti-malaria testing; type: cell-based
MDCK = assay: Anti-influenza testing, IC50 in MDCK cell line (cell-inhibitory concentration used for SI); type: cell-based; details: Canis lupus familiaris
Bacillus anthracis = assay: microbe, parasite or virus in culture; type: cell-based; details: Bacillus anthracis; read-out: MIC90
Francisella tularensis = assay: microbe, parasite or virus in culture; type: cell-based; details: Francisella tularensis
TB = assay: DMID TB MIC Results (Table 10); type: cell-based; details: Mycobacterium tuberculosis; solvent DMSO
H37Rv Colorado strain [6] = assay: TB MIC Testing (Table 9); type: cell-based; details: Mycobacterium tuberculosis, read-out: MIC Value, Standard Test Strain H27Rv
H37Rv Colorado strain [7] = assay: MBC Determination with H37Rv Colorado strain (Table 9); type: cell-based; details: Mycobacterium tuberculosis; Performed with H37Rv
Y. pestis = assay: microbe, parasite or virus in culture; type: cell-based; details: Yersinia pestis, read-out: MIC Y. pestis
P. aeruginosa = assay: microbe, parasite or virus in culture; type: cell-based; details: Pseudomonas aeruginosa, read-out: MIC P. aeruginosa
E. coli = assay: microbe, parasite or virus in culture; type: cell-based; details: Escherichia coli, read-out: MIC E. coli
B. pseudomallei = assay: microbe, parasite or virus in culture; type: cell-based; details: Burkholderia pseudomallei, read-out: MIC B. pseudomallei
F. tularensis = assay: microbe, parasite or virus in culture; type: cell-based; details: Francisella tularensis, read-out: MIC F. tularensis (Original Test)
B. mallei = assay: microbe, parasite or virus in culture; type: cell-based; details: Burkholderia mallei, read-out: MIC B. mallei
B. anthracis = assay: microbe, parasite or virus in culture; type: cell-based; details: Bacillus anthracis, read-out: MIC B. anthracis
Vero Cells = assay: Cytotoxicity Assay, CellTiter-Glo Luminescent Cell Viability Assay
HIV-1 = assay: CEM-SS microtiter antiviral XTT cytoprotection assay; type: cell-based
Burkholderia mallei = assay: microbe, parasite or virus in culture; type: cell-based
[8] = average of Test 1 and Test 2, read-out: Average IC50

CC(C)(O/N=C(\C(=O)N[C@@H]1C(=O)N2C(C(=O)[O-])=C(C[n+]3ccccc3)CS[C@H]12)c1csc(N)n1)C(=O)O [Ceftazidime, ceftazidime, reference compound]
MIC Range [1]: 0.5 to 32 µg/mL
MIC50 ([1]; Burkholderia pseudomallei): 2 µg/mL (≈ 3.66 µM)
MIC90 ([1]; Burkholderia pseudomallei): 4 µg/mL (≈ 7.32 µM)

Cc1cn([C@H]2C[C@H](N=[N+]=[N-])[C@@H](CO)O2)c(=O)[nH]c1=O [AZT, reference compound]
RT ACTIVITY % VC ([2]; 0.0013 μM): 104.6%
RT ACTIVITY % VC ([2]; 0.013 μM): 77.3%
RT ACTIVITY % VC ([2]; 0.04 μM): 81.7%
RT ACTIVITY % VC ([2]; 0.13 μM): 32.3%
RT ACTIVITY % VC ([2]; 0.4 μM): 3.8%
RT ACTIVITY % VC ([2]; 1.3 μM): 8.8%
RT ACTIVITY % VC ([2]; 4 μM): 0.7%
pIC50 ([2]; ROJO in PBMC, RT activity): 7.00
CC50 [3]: > 4 µM
TOXICITY VALUES (XTT) % CC ([3]; 0.0013 μM): 90.1%
TOXICITY VALUES (XTT) % CC ([3]; 0.013 μM): 99.3%
TOXICITY VALUES (XTT) % CC ([3]; 0.04 μM): 92.1%
TOXICITY VALUES (XTT) % CC ([3]; 0.13 μM): 89.0%
TOXICITY VALUES (XTT) % CC ([3]; 0.4 μM): 98.8%
TOXICITY VALUES (XTT) % CC ([3]; 1.3 μM): 84.8%
TOXICITY VALUES (XTT) % CC ([3]; 4 μM): 86.2%

O=C1C2C=CC=C([N+](=O)[O-])C2(C(=O)O)C(c2ccccc2)N1c1ccc(O)cc1 (stereo not shown) [BVS-45A (I)]
activity by visual and NR assays [4]: highly active
activity by visual and NR assays [5]: highly active

N#CNC(=N)NC1C2CC3CCC1(NC(=N)NC#N)CC3C2 (stereo not shown) [BVS-47A (XX)]
pIC50 (Plasmodium falciparum; [8]): < 5.00
pIC50 (Plasmodium falciparum; read-out: IC50 Test 1): < 5.00
pIC50 (Plasmodium falciparum; read-out: IC50 Test 2): < 5.00
activity by visual and NR assays [4]: highly active
activity by visual and NR assays [5]: highly active

O=C1C2C=CC=C([N+](=O)[O-])C2(C(=O)O)C(c2ccccc2)N1c1ccc(O)cc1 (stereo not shown) [BVS-45]
EC90 ([4]; Influenza A virus, Virus Yield assay, Flu A (H1N1) New Caledonia/20/99, MDCK, vehicle DMSO, trial 2): > 100 µg/mL
EC50 ([4]; Influenza A virus, Visual-CONF assay, Flu A (H1N1) New Caledonia/20/99, MDCK, vehicle DMSO, trial 2, read-out: EC50): 0.18 µg/mL (≈ 0.459 µM)
IC50 (MDCK; Neutral Red assay, test with Flu A (H3N2) California/7/04, trial 1, read-out: IC50): 75 µg/mL (≈ 191 µM)
IC50 (MDCK; Visual assay, test with Flu A (H1N1) New Caledonia/20/99, trial 1): > 100 µg/mL
IC50 (MDCK; Visual assay, test with Flu A (H3N2) California/7/04, trial 1, read-out: IC50): > 100 µg/mL
IC50 (MDCK; Visual-CONF assay, test with Flu A (H1N1) New Caledonia/20/99, trial 2, read-out: IC50): > 100 µg/mL
IC50 (MDCK; Visual-CONF assay, test with Flu A (H3N2) California/7/04, trial 2, read-out: IC50): > 100 µg/mL
EC50 ([5]; Influenza A virus, Neutral Red assay, Flu A (H3N2) California/7/04, MDCK, vehicle DMSO, trial 1): 0.22 µg/mL (≈ 0.561 µM)
EC50 ([5]; Influenza A virus, Visual assay, Flu A (H3N2) California/7/04, MDCK, vehicle DMSO, trial 1): 0.056 µg/mL (≈ 0.143 µM)
EC50 ([5]; Influenza A virus, Visual-CONF assay, Flu A (H3N2) California/7/04, MDCK, vehicle DMSO, trial 2): 0.056 µg/mL (≈ 0.143 µM)
EC90 ([5]; Influenza A virus, Virus Yield assay, Flu A (H3N2) California/7/04, MDCK, vehicle DMSO, trial 2): 0.15 µg/mL (≈ 0.382 µM)

N=C(NC(=N)N1CCSCC1)NC1C2CC3CCC1(NC(=N)NC(=N)N1CCSCC1)CC3C2 (stereo not shown) [BVS-20A (XII)]
MIC90 (Bacillus anthracis): ≤ 4 µg/mL
MIC90 (Francisella tularensis): < 4 µg/mL

NNC(=O)c1ccncc1 [Isoniazid, isoniazid, reference compound]
MIC (TB): 0.06 µg/mL (≈ 0.438 µM)
MIC (H37Rv Colorado strain [6]): 0.031 µg/mL (≈ 0.226 µM)
MBC (H37Rv Colorado strain [7]): 0.031 µg/mL (≈ 0.226 µM)

C[C@@H]1COc2c(N3CCN(C(=N)NC(=N)NCCCCCCNC(=N)NC(=N)N4CCN(c5c(F)cc6c(=O)c(C(=O)O)cn7c6c5OC[C@@H]7C)CC4)CC3)c(F)cc3c(=O)c(C(=O)O)cn1c23 [BVS-85A (XVII)]
pIC50 (Plasmodium falciparum; [8]): 5.14
pIC50 (Plasmodium falciparum; read-out: IC50 Test 1): 5.26
pIC50 (Plasmodium falciparum; read-out: IC50 Test 2): 5.04
IC50 (TB): 0.53 µg/mL (≈ 0.561 µM)
IC90 (TB): 0.57 µg/mL (≈ 0.603 µM)
MIC (TB): 0.625 µg/mL (≈ 0.661 µM)
MIC (Y. pestis): 0.06 to 0.12 µg/mL (≈ 0.0635 to 0.127 µM)
MIC (P. aeruginosa): 0.5 µg/mL (≈ 0.529 µM)
MIC (H37Rv Colorado strain [6]): 1.25 µg/mL (≈ 1.32 µM)
MIC (E. coli): < 0.06 µg/mL
MIC (B. pseudomallei): 8 µg/mL (≈ 8.47 µM)
MIC (F. tularensis): < 0.06 µg/mL
MBC (H37Rv Colorado strain [7]): 1.25 µg/mL (≈ 1.32 µM)
MIC (B. mallei): 0.5 µg/mL (≈ 0.529 µM)
MIC (B. anthracis): < 0.06 µg/mL
% Viability (Vero Cells; 0.01 μg/ml): 109%
% Viability (Vero Cells; 0.02 μg/ml): 109%
% Viability (Vero Cells; 5 μg/ml): 106%
% Viability (Vero Cells; 10 μg/ml): 101%
% Viability (Vero Cells; 20 μg/ml, vs […] DMSO controls): 107%

O=C(O)C1=C(c2ccc(F)c(N3CCNCC3)c2)N(C23CC4CCC(C2)C(C4)C3)C(=O)CC1 (stereo not shown) [BVS-97E (XIV)]
MIC (Y. pestis): > 64 µg/mL
MIC (P. aeruginosa): > 64 µg/mL
MIC (E. coli): 16 to 32 µg/mL (≈ 35.3 to 70.6 µM)
MIC (B. pseudomallei): > 64 µg/mL
MIC (F. tularensis): 0.5 to 4 µg/mL (≈ 1.1 to 8.82 µM)
MIC (B. mallei): > 64 µg/mL
MIC (B. anthracis): 4 µg/mL (≈ 8.82 µM)

Nc1ccn([C@H]2CC[C@@H](CO)O2)c(=O)n1 [DDC, di-deoxycytosine, reference compound]
% RED. IN VIRAL CPE (HIV-1; 0.00003 μM): 1%
% RED. IN VIRAL CPE (HIV-1; 0.0001 μM): 5%
% RED. IN VIRAL CPE (HIV-1; 0.00032 μM): 6%
% RED. IN VIRAL CPE (HIV-1; 0.001 μM): 4%
% RED. IN VIRAL CPE (HIV-1; 0.0032 μM): 8%
% RED. IN VIRAL CPE (HIV-1; 0.01 μM): 9%
% RED. IN VIRAL CPE (HIV-1; 0.032 μM): 75%
% RED. IN VIRAL CPE (HIV-1; 0.1 μM): 81%
% RED. IN VIRAL CPE (HIV-1; 0.32 μM): 92%
% RED. IN VIRAL CPE (HIV-1; 1 μM): 86%
% RED. IN VIRAL CPE (HIV-1; 3.2 μM): 100%
% RED. IN VIRAL CPE (HIV-1; 10 μM): 100%
% CELL VIABILITY (CEM-SS cells; 0.00003 μM): 100%
% CELL VIABILITY (CEM-SS cells; 0.0001 μM): 93%
% CELL VIABILITY (CEM-SS cells; 0.00032 μM): 99%
% CELL VIABILITY (CEM-SS cells; 0.001 μM): 100%
% CELL VIABILITY (CEM-SS cells; 0.0032 μM): 100%
% CELL VIABILITY (CEM-SS cells; 0.01 μM): 100%
% CELL VIABILITY (CEM-SS cells; 0.032 μM): 100%
% CELL VIABILITY (CEM-SS cells; 0.1 μM): 96%
% CELL VIABILITY (CEM-SS cells; 0.32 μM): 97%
% CELL VIABILITY (CEM-SS cells; 1 μM): 100%
% CELL VIABILITY (CEM-SS cells; 3.2 μM): 100%
% CELL VIABILITY (CEM-SS cells; 10 μM): 100%

O=C(O)c1cn(C2CC2)c2cc(N3CCNCC3)c(F)cc2c1=O [Ciprofloxacin, ciprofloxacin, reference compound]
MIC (P. aeruginosa): 0.25 µg/mL (≈ 0.754 µM)
MIC (E. coli): 0.015 to 0.06 µg/mL (≈ 0.0453 to 0.181 µM)
MIC (B. pseudomallei): 0.5 to 1 µg/mL (≈ 1.51 to 3.02 µM)
MIC (B. mallei): 1 µg/mL (≈ 3.02 µM)
MIC (B. anthracis): < 0.03 µg/mL

CC[C@H]1OC(=O)[C@H](C)[C@@H](O[C@H]2C[C@@](C)(OC)[C@@H](O)[C@H](C)O2)[C@H](C)[C@@H](O[C@@H]2O[C@H](C)C[C@H](N(C)C)[C@H]2O)[C@](C)(O)C[C@@H](C)CN(C)[C@H](C)[C@@H](O)[C@]1(C)O [Azithromycin, azithromycin, reference compound]
MIC Range (Burkholderia mallei): 0.0625 to 1 µg/mL
MIC50 (Burkholderia mallei; Burkholderia mallei): 0.5 µg/mL (≈ 0.668 µM)
MIC90 (Burkholderia mallei; Burkholderia mallei, read-out: MIC90): 1 µg/mL (≈ 1.34 µM)

N#CNC(=N)NC1C2CC3CCC1(NC(=N)NC#N)CC3C2 (stereo not shown) [BVS-47]
EC50 ([4]; Influenza A virus, H1N1, MDCK): 0.25 µg/mL (≈ 0.832 µM)
IC50 (MDCK; Neutral Red assay, test with Flu A (H1N1) New Caledonia/20/99, trial 1): 70 µg/mL (≈ 233 µM)
